Experimental data reported in patent publication US20250313546A1, “NUCLEIC ACID BINDERS” (UNIVERSITY OF STRATHCLYDE, priority 2022, published 2025).
In brackets after ≈: the same amount, converted by molar mass.

Columns and labels:
Assay in all cases: Antibacterial MIC, broth microdilution (CLSI)
Type in all cases: cell-based
[1] = system: Escherichia coli (ATCC 25922); conditions: for MIC80: Escherichia coli, ATCC25922, read-out: MIC80 E. coli
[2] = system: Staphylococcus aureus (ATCC 43300); conditions: for MIC80: Staphylococcus aureus, ATCC43300, read-out: MIC80 S. aureus
[3] = system: Enterococcus faecalis (ATCC 51299); conditions: for MIC80: Enterococcus faecalis, ATCC51299, read-out: MIC80 E. faecalis

Compound | MIC80 [1] [µM] | MIC80 [2] [µM] | MIC80 [3] [µM] | MIC80 E. coli ([1]; MIC at 80% inhibition, ATCC 25922) | MIC80 S. aureus ([2]; MIC at 80% inhibition, ATCC 43300) | MIC80 E. faecalis ([3]; MIC at 80% inhibition, ATCC 51299)
C/N=C(/CCNC(=O)c1cc(NC(=O)c2cc(NC(=O)c3ccc(/C=C/c4ccc(F)c(OC)c4)nc3)cn2C)cn1C)NC [Ia59, 6-((E)-4-fluoro-3-methoxystyryl)-N-(1-methyl-5-((1-methyl-5-(((Z)-3-(methylamino)-3-(methylimino)propyl)carbamoyl)-1H-pyrrol-3-yl)carbamoyl)-1H-pyrrol-3-yl)nicotinamide] | > 100 | < 5 | > 100 |  |  | 
[H]/N=C(\CCNC(=O)c1cc(NC(=O)c2cc(NC(=O)c3ccc(C=Cc4ccc(N(C)C)cc4)nc3)cn2C)cn1C)N1CCSCC1 [Ib9, (E)-6-(4-(dimethylamino)styryl)-N-(5-((5-((3-imino-3-thiomorpholinopropyl)carbamoyl)-1-methyl-1H-pyrrol-3-yl)carbamoyl)-1-methyl-1H-pyrrol-3-yl)nicotinamide] | > 100 | < 5 | 25 to 100 (≈ 16.7 to 66.8 µg/mL) |  |  | 
CN(C)c1ccc(/C=C/c2ccc(C(=O)Nc3cc(C(=O)Nc4cc(C(=O)NCCC(=N)NCC(F)F)n(C)c4)n(C)c3)cn2)cc1 [Ia63, (E)-N-(5-((5-((3-((2,2-difluoroethyl)amino)-3-iminopropyl)carbamoyl)-1-methyl-1H-pyrrol-3-yl)carbamoyl)-1-methyl-1H-pyrrol-3-yl)-6-(4-(dimethylamino)styryl)nicotinamide] | > 100 | < 5 | 25 to 100 (≈ 16.1 to 64.6 µg/mL) |  |  | 
CN(C)c1ccc(/C=C/c2ccc(C(=O)Nc3cc(C(=O)Nc4cc(C(=O)NCCCCCC(=N)N)n(C)c4)n(C)c3)cn2)cc1 [II4, (E)-N-(5-((5-((6-amino-6-iminohexyl)carbamoyl)-1-methyl-1H-pyrrol-3-yl)carbamoyl)-1-methyl-1H-pyrrol-3-yl)-6-(4-(dimethylamino)styryl)nicotinamide] | > 100 | 5 to 25 (≈ 3.12 to 15.6 µg/mL) | > 100 |  |  | 
[H]/N=C(\CCNC(=O)c1cc(NC(=O)c2cc(NC(=O)c3ccc(C=Cc4ccc(N(C)C)cc4)nc3)cn2C)cn1C)NOC [Ia31, (E)-6-(4-(dimethylamino)styryl)-N-(5-((5-((3-imino-3-(methoxyamino)propyl)carbamoyl)-1-methyl-1H-pyrrol-3-yl)carbamoyl)-1-methyl-1H-pyrrol-3-yl)nicotinamide] | > 100 | < 5 | 5 to 25 (≈ 3.06 to 15.3 µg/mL) |  |  | 
Cn1cc(NC(=O)c2cc(NC(=O)c3ccc(/C=C/c4cnc5ccccc5c4)cc3)cn2C)cc1C(=O)NCCC(=N)NCCc1ccccc1 [Ia48, (E)-N-(3-imino-3-(phenethylamino)propyl)-1-methyl-4-(1-methyl-4-(4-(2-(quinolin-3-yl)vinyl)benzamido)-1H-pyrrole-2-carboxamido)-1H-pyrrole-2-carboxamide] | > 100 | < 5 | < 5 |  |  | 
CN(C)c1ccc(/C=C/c2ccc(C(=O)Nc3cc(C(=O)Nc4cc(C(=O)NCCCCC(=N)N)n(C)c4)n(C)c3)cn2)cc1 [II2, (E)-N-(5-((5-((5-amino-5-iminopentyl)carbamoyl)-1-methyl-1H-pyrrol-3-yl)carbamoyl)-1-methyl-1H-pyrrol-3-yl)-6-(4-(dimethylamino)styryl)nicotinamide] | > 100 | 5 to 25 (≈ 3.05 to 15.2 µg/mL) | 5 to 25 (≈ 3.05 to 15.2 µg/mL) |  |  | 
CC/N=C(/CCNC(=O)c1cc(NC(=O)c2cc(NC(=O)c3ccc(/C=C/c4ccc(N(C)C)cc4)nc3)cn2C)cn1C)NCC [Ia51, 6-((E)-4-(dimethylamino)styryl)-N-(5-((5-(((Z)-3-(ethylamino)-3-(ethylimino)propyl)carbamoyl)-1-methyl-1H-pyrrol-3-yl)carbamoyl)-1-methyl-1H-pyrrol-3-yl)nicotinamide] | > 100 | 25 to 100 (≈ 15.9 to 63.8 µg/mL) | 25 to 100 (≈ 15.9 to 63.8 µg/mL) |  |  | 
CCCCCCC[N+]1(CCNC(=O)c2cc(NC(=O)c3cc(NC(=O)c4ccc(/C=C/c5cnc6ccccc6c5)cc4)cn3C)cn2C)CCOCC1 [Id2, (E)-4-heptyl-4-(2-(1-methyl-4-(1-methyl-4-(4-(2-(quinolin-3-yl)vinyl)benzamido)-1H-pyrrole-2-carboxamido)-1H-pyrrole-2-carboxamido)ethyl)morpholin-4-ium] | > 100 | < 5 | > 100 |  |  | 
N-(5-((5-(((Z)-3-(ethylamino)-3-(ethylimino)propyl)carbamoyl)-1-methyl-1H-pyrrol-3-yl)carbamoyl)-1-methyl-1H-pyrrol-3-yl)-6-((E)-3-methoxystyryl)nicotinamide [Ia26] |  |  |  | — (— means MIC80 > 100 μM) | * (* means 25 μM < MIC80 <= 100 μM) | — (— means MIC80 > 100 μM)
Cn1cc(NC(=O)c2cc(NC(=O)c3ccc(/C=C/c4cnc5ccccc5c4)cc3)cn2C)cc1C(=O)NCCC(=N)NCCN1CCSCC1 [Ia47, (E)-N-(3-imino-3-((2-thiomorpholinoethyl)amino)propyl)-1-methyl-4-(1-methyl-4-(4-(2-(quinolin-3-yl)vinyl)benzamido)-1H-pyrrole-2-carboxamido)-1H-pyrrole-2-carboxamide] | > 100 | 5 to 25 (≈ 3.59 to 17.9 µg/mL) | > 100 |  |  | 
COCCNC(=N)CCNC(=O)c1cc(NC(=O)c2cc(NC(=O)c3ccc(/C=C/c4cnc5ccccc5c4)cc3)cn2C)cn1C [Ia58, (E)-N-(3-imino-3-((2-methoxyethyl)amino)propyl)-1-methyl-4-(1-methyl-4-(4-(2-(quinolin-3-yl)vinyl)benzamido)-1H-pyrrole-2-carboxamido)-1H-pyrrole-2-carboxamide] | > 100 | < 5 | 5 to 25 (≈ 3.23 to 16.2 µg/mL) |  |  | 
Cn1cc(NC(=O)c2cc(NC(=O)c3ccc(/C=C/c4cnc5ccccc5c4)cc3)cn2C)cc1C(=O)NCC/C(=N/CC(F)F)NCC(F)F [Ia57, N—((Z)-3-((2,2-difluoroethyl)amino)-3-((2,2-difluoroethyl)imino)propyl)-1-methyl-4-(1-methyl-4-(4-((E)-2-(quinolin-3-yl)vinyl)benzamido)-1H-pyrrole-2-carboxamido)-1H-pyrrole-2-carboxamide] | > 100 | < 5 | 5 to 25 (≈ 3.58 to 17.9 µg/mL) |  |  | 
C/N=C(/CCNC(=O)c1cc(NC(=O)c2cc(NC(=O)c3ccc(/C=C/c4cccc(C(F)(F)F)c4)nc3)cn2C)cn1C)NC [Ia61, N-(1-methyl-5-((1-methyl-5-(((Z)-3-(methylamino)-3-(methylimino)propyl)carbamoyl)-1H-pyrrol-3-yl)carbamoyl)-1H-pyrrol-3-yl)-6-((E)-3-(trifluoromethyl)styryl)nicotinamide] | > 100 | 5 to 25 (≈ 3.17 to 15.9 µg/mL) | 5 to 25 (≈ 3.17 to 15.9 µg/mL) |  |  | 
CNC(=N)CCNC(=O)c1cc(NC(=O)c2cc(NC(=O)c3ccc(/C=C/c4cccc(OC)c4)cc3)cn2C)cn1C [Ia56, (E)-N-(3-imino-3-(methylamino)propyl)-4-(4-(4-(3-methoxystyryl)benzamido)-1-methyl-1H-pyrrole-2-carboxamido)-1-methyl-1H-pyrrole-2-carboxamide] | > 100 | 5 to 25 (≈ 2.91 to 14.5 µg/mL) | 5 to 25 (≈ 2.91 to 14.5 µg/mL) |  |  | 
COCCNC(=O)c1cc(NC(=O)c2cc(NC(=O)c3ccc(/C=C/c4cnc5ccccc5c4)cc3)cn2C)cn1C [IVa18, (E)-N-(2-methoxyethyl)-1-methyl-4-(1-methyl-4-(4-(2-(quinolin-3-yl)vinyl)benzamido)-1H-pyrrole-2-carboxamido)-1H-pyrrole-2-carboxamide] | > 100 | < 5 | < 5 |  |  | 
